ChEMBL document CHEMBL1177794, “Broad spectrum alkynyl inhibitors of T315I Bcr-Abl” (Bioorg Med Chem Lett, 2010)

Legend:
[1] = molecular target: Calcium-dependent protein kinase 1 (Plasmodium falciparum) (UniProt P62344); test: Inhibition of Plasmodium falciparum PFCDPK1 at 10 uM; conditions: values are per cent of control
[2] = molecular target: Mitogen-activated protein kinase 7 (Homo sapiens) (UniProt Q13164); test: Inhibition of ERK5 at 10 uM; values are per cent of control
[3] = molecular target: Death-associated protein kinase 1 (Homo sapiens) (UniProt P53355); test: Inhibition of DAPK1 at 10 uM; conditions: values are per cent of control
[4] = molecular target: Ephrin type-A receptor 2 (Homo sapiens) (UniProt P29317); test: Inhibition of EPHA2 at 10 uM; conditions: values are per cent of control
[5] = molecular target: Glycogen synthase kinase-3 alpha (Homo sapiens) (UniProt P49840); test: Inhibition of GSK3A at 10 uM; conditions: values are per cent of control
[6] = test system: Epidermal growth factor receptor (Homo sapiens), P00533 [L858R]; test: Inhibition of EGFR L858R mutant at 10 uM; values are per cent of control
[7] = molecular target: Cyclin-dependent kinase 18 (Homo sapiens) (UniProt Q07002); test: Inhibition of PCTK3 at 10 uM; conditions: values are per cent of control
[8] = molecular target: Serine/threonine-protein kinase Sgk3 (Homo sapiens) (UniProt Q96BR1); test: Inhibition of SGK3 at 10 uM
[9] = molecular target: Homeodomain-interacting protein kinase 3 (Homo sapiens) (UniProt Q9H422); test: Inhibition of HIPK3 at 10 uM; conditions: values are per cent of control
[10] = molecular target: Ephrin type-A receptor 1 (Homo sapiens) (UniProt P21709); test: Inhibition of EPHA1 at 10 uM; conditions: values are per cent of control
[11] = molecular target: cAMP-dependent protein kinase catalytic subunit alpha (Homo sapiens) (UniProt P17612); test: Inhibition of PKAC-alpha at 10 uM; conditions: values are per cent of control
[12] = molecular target: Serine/threonine-protein kinase 32C (Homo sapiens) (UniProt Q86UX6); test: Inhibition of YANK3 at 10 uM; conditions: values are per cent of control
[13] = molecular target: Fibroblast growth factor receptor 3 (Homo sapiens) (UniProt P22607); test: Inhibition of FGFR3 at 10 uM; conditions: values are per cent of control
[14] = molecular target: Receptor tyrosine-protein kinase erbB-4 (Homo sapiens) (UniProt Q15303); test: Inhibition of ERBB4 at 10 uM; values are per cent of control
[15] = molecular target: Serine/threonine-protein kinase Nek4 (Homo sapiens) (UniProt P51957); test: Inhibition of NEK4 at 10 uM
[16] = test system: Tyrosine-protein kinase ABL1 (Homo sapiens), P00519 [F317I]; test: Inhibition of phosphorylated ABL1 F317I mutant at 10 uM; conditions: values are per cent of control
[17] = molecular target: Dual specificity tyrosine-phosphorylation-regulated kinase 1A (Homo sapiens) (UniProt Q13627); test: Inhibition of DYRK1A at 10 uM; conditions: values are per cent of control
[18] = molecular target: Phosphatidylinositol 4,5-bisphosphate 3-kinase catalytic subunit beta isoform (Homo sapiens) (UniProt P42338); test: Inhibition of PIK3CB at 10 uM
[19] = molecular target: Dual specificity mitogen-activated protein kinase kinase 4 (Homo sapiens) (UniProt P45985); test: Inhibition of MEK4 at 10 uM; conditions: values are per cent of control
[20] = molecular target: Epidermal growth factor receptor (Homo sapiens) (UniProt P04626+P00533+Q15303+P21860); test: Inhibition of EGFR S752-I759del mutant at 10 uM; values are per cent of control
[21] = molecular target: Phosphatidylinositol 4-kinase beta (Homo sapiens) (UniProt Q9UBF8); test: Inhibition of PIK4CB at 10 uM
[22] = molecular target: Serine/threonine-protein kinase MRCK beta (Homo sapiens) (UniProt Q9Y5S2); test: Inhibition of MRCKB at 10 uM
[23] = test system: Epidermal growth factor receptor (Homo sapiens), P00533 [T790M]; test: Inhibition of EGFR T790M mutant at 10 uM; values are per cent of control
[24] = molecular target: Casein kinase I isoform alpha-like (Homo sapiens) (UniProt Q8N752); test: Inhibition of CSNK1A1L at 10 uM; conditions: values are per cent of control
[25] = molecular target: TGF-beta receptor type-1 (Homo sapiens) (UniProt P36897); test: Inhibition of TGFBR1 at 10 uM
[26] = molecular target: Cyclin-dependent kinase-like 1 (Homo sapiens) (UniProt Q00532); test: Inhibition of CDKL1 at 10 uM; conditions: values are per cent of control
[27] = molecular target: Tyrosine-protein kinase ZAP-70 (Homo sapiens) (UniProt P43403); test: Inhibition of ZAP70 at 10 uM; conditions: values are per cent of control
[28] = molecular target: cGMP-dependent protein kinase 2 (Homo sapiens) (UniProt Q13237); test: Inhibition of PRKG2 at 10 uM
[29] = molecular target: Insulin receptor (Homo sapiens) (UniProt P06213); test: Inhibition of INSR at 10 uM; conditions: values are per cent of control
[30] = molecular target: Serine/threonine-protein kinase PknB (Mycobacterium tuberculosis) (UniProt P9WI81); test: Inhibition of Mycobacterium tuberculosis PKNB at 10 uM
[31] = molecular target: Serine/threonine-protein kinase 36 (Homo sapiens) (UniProt Q9NRP7); test: Inhibition of STK36 at 10 uM
[32] = molecular target: Dual specificity mitogen-activated protein kinase kinase 6 (Homo sapiens) (UniProt P52564); test: Inhibition of MEK6 at 10 uM; conditions: values are per cent of control
[33] = test system: Phosphatidylinositol 4,5-bisphosphate 3-kinase catalytic subunit alpha isoform (Homo sapiens), P42336 [I800L]; test: Inhibition of PIK3CA I800L mutant at 10 uM
[34] = molecular target: Receptor-interacting serine/threonine-protein kinase 1 (Homo sapiens) (UniProt Q13546); test: Inhibition of RIPK1 at 10 uM; conditions: values are per cent of control
[35] = molecular target: Mitogen-activated protein kinase kinase kinase 9 (Homo sapiens) (UniProt P80192); test: Inhibition of MLK1 at 10 uM
[36] = molecular target: Rhodopsin kinase GRK7 (Homo sapiens) (UniProt Q8WTQ7); test: Inhibition of GRK7 at 10 uM; conditions: values are per cent of control
[37] = test system: Tyrosine-protein kinase ABL1 (Homo sapiens), P00519 [M351T]; test: Inhibition of phosphorylated ABL1 M351T mutant at 10 uM; conditions: values are per cent of control
[38] = molecular target: Mitogen-activated protein kinase 14 (Homo sapiens) (UniProt Q16539); test: Inhibition of p38alpha at 10 uM; values are per cent of control
[39] = molecular target: Vascular endothelial growth factor receptor 3 (Homo sapiens) (UniProt P35916); test: Inhibition of FLT4 at 10 uM; conditions: values are per cent of control
[40] = molecular target: Interleukin-1 receptor-associated kinase 3 (Homo sapiens) (UniProt Q9Y616); test: Inhibition of IRAK3 at 10 uM; conditions: values are per cent of control
[41] = molecular target: Proto-oncogene tyrosine-protein kinase receptor Ret (Homo sapiens) (UniProt P07949); test: Inhibition of RET at 10 uM; values are per cent of control
[42] = molecular target: Ephrin type-A receptor 7 (Homo sapiens) (UniProt Q15375); test: Inhibition of EPHA7 at 10 uM; conditions: values are per cent of control

Interleukin-1 receptor-associated kinase 3 (Homo sapiens), sequence (Q9Y616 whole entry): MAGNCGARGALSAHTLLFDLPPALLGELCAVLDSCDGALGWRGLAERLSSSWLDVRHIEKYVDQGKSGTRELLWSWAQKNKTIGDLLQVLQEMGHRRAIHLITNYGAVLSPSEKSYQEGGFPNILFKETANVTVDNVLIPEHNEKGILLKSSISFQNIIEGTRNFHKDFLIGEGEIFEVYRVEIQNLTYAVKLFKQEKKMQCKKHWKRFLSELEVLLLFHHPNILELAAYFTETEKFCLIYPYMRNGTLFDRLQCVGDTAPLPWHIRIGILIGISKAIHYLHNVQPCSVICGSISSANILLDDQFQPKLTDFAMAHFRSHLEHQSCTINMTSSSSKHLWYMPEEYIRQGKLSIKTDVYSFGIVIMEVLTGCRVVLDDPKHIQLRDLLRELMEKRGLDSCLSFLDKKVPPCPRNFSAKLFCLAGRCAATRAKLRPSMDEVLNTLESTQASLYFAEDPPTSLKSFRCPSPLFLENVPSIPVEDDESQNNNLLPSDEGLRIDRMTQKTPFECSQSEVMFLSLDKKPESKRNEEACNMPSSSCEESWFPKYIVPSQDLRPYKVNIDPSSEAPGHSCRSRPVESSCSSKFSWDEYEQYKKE
Death-associated protein kinase 1 (Homo sapiens), sequence (P53355 whole entry, looked up): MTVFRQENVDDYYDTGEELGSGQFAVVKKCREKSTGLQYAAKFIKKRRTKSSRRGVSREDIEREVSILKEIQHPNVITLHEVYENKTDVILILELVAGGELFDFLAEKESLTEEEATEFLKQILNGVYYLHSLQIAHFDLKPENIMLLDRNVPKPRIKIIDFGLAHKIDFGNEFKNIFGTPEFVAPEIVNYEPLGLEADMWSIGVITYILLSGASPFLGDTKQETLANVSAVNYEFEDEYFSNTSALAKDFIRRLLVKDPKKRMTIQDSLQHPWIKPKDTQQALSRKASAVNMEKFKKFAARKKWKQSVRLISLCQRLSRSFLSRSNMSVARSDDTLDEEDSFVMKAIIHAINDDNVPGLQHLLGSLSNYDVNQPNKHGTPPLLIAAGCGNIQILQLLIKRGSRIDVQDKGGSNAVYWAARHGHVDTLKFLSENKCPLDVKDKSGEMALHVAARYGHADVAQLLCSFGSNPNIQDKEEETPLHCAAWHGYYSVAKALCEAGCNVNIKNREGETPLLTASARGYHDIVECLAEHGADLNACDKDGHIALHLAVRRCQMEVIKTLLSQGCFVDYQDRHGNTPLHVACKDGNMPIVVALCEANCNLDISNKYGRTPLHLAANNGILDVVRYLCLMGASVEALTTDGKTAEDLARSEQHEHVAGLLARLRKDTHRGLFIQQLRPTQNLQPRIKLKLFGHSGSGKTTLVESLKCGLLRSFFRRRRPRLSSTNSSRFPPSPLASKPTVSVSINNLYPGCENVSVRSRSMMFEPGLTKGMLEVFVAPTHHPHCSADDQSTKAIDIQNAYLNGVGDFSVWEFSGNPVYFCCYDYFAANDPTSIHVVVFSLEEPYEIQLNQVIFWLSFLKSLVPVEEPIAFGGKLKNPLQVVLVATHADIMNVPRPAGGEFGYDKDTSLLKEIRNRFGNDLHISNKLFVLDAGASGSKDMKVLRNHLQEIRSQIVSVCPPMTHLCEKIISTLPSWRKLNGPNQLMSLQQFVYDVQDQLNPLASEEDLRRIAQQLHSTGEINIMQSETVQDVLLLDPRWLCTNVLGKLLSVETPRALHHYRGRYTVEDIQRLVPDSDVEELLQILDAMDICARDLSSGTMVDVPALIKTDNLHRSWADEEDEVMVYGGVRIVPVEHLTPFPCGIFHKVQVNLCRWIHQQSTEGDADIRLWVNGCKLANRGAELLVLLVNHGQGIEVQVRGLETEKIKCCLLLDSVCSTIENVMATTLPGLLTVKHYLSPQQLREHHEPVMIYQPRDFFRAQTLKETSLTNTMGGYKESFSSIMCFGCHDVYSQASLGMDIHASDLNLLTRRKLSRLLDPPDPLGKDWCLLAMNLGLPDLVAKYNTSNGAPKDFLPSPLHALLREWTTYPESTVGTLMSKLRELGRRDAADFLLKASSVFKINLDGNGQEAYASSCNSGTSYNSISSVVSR
Cyclin-dependent kinase-like 1 (Homo sapiens), sequence (Q00532 whole entry): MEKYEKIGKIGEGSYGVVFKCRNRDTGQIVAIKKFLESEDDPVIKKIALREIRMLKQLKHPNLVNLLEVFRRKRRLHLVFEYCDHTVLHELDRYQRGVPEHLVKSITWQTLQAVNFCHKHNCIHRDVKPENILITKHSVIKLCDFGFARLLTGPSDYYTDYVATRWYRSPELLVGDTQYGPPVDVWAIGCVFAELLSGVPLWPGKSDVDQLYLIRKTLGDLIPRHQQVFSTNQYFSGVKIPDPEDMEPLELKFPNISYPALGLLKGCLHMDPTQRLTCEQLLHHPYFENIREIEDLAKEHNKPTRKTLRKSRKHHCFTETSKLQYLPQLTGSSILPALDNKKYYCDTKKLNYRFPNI
Dual specificity mitogen-activated protein kinase kinase 4 (Homo sapiens), sequence (P45985 whole entry): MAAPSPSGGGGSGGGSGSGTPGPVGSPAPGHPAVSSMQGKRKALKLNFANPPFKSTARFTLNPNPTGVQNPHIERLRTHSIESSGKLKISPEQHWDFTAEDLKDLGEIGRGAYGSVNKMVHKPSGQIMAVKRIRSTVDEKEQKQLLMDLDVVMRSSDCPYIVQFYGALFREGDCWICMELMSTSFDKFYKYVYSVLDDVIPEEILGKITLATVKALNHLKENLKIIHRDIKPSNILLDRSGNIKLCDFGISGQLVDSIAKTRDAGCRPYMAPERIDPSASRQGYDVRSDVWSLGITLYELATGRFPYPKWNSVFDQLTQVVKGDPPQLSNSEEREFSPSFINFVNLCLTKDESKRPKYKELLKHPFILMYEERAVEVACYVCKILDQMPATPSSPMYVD
Glycogen synthase kinase-3 alpha (Homo sapiens), sequence (P49840 2-483 limits assumed): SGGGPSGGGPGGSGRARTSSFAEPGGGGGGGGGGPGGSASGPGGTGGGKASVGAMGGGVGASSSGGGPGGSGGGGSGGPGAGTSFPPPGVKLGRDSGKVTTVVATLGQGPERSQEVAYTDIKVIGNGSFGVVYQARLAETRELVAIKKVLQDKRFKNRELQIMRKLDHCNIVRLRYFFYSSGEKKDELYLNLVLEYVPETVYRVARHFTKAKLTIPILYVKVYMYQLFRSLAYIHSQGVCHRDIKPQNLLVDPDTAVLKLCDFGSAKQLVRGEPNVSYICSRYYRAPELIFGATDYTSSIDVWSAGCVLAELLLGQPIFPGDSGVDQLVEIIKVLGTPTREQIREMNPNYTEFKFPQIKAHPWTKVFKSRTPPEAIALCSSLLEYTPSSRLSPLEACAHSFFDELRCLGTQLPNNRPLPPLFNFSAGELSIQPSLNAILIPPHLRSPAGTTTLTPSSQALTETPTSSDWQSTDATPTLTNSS
Mitogen-activated protein kinase kinase kinase 9 (Homo sapiens), sequence (P80192 whole entry, looked up): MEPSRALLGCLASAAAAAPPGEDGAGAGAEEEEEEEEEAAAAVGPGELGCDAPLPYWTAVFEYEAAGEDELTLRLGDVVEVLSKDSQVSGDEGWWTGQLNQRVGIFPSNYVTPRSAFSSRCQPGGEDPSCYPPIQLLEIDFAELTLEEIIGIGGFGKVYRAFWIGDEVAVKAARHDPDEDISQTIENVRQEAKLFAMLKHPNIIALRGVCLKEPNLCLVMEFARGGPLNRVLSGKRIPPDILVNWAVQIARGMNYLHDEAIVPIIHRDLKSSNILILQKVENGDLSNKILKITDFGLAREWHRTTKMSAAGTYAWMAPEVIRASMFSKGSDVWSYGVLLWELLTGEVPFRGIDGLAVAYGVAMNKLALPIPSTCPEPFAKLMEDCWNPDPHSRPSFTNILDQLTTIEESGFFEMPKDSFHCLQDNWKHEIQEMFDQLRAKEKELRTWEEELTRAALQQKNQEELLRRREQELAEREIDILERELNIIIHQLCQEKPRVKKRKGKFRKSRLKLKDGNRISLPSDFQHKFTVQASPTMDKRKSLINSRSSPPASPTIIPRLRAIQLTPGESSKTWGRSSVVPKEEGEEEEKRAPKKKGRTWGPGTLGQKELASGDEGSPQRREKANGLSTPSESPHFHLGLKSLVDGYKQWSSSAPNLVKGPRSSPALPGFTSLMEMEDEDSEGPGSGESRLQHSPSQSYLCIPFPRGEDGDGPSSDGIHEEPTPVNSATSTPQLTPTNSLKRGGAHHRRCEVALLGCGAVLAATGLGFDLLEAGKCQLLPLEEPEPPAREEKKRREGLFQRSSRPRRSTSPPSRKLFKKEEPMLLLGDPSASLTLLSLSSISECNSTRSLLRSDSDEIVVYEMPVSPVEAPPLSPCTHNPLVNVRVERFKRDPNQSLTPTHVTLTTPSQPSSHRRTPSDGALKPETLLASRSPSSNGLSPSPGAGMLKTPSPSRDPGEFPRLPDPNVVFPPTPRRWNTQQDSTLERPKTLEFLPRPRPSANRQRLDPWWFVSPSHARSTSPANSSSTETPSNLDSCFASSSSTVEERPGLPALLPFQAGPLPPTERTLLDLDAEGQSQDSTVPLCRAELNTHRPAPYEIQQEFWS
Calcium-dependent protein kinase 1 (Plasmodium falciparum), sequence (P62344 2-524 limits assumed): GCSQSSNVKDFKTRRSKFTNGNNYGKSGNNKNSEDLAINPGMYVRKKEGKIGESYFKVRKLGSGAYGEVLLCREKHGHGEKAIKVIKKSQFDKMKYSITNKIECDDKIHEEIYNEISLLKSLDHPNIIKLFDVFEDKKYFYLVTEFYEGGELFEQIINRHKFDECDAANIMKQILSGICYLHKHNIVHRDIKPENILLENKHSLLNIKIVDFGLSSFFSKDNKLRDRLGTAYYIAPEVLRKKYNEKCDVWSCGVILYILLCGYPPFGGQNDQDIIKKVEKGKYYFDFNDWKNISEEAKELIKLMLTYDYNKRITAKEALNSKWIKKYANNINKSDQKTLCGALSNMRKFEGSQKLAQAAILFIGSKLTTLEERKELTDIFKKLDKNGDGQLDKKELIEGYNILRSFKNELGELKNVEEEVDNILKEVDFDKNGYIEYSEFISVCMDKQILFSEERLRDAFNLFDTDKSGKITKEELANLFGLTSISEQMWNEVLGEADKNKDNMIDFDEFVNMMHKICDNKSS

CCN1CCN(Cc2ccc(NC(=O)c3ccc(C)c(C#Cc4cnc5[nH]ccc5c4)c3)cc2C(F)(F)F)CC1
residual binding, % of control [1]: 0.2% | level, % of control [2]: 36% | residual binding, % of control [3]: 94% | residual binding, % of control [4]: 0.35% | residual binding, % of control [5]: 100% | level, % of control [6]: 0.25% | residual binding, % of control [7]: 12% | inhibition [8]: 11% | residual binding, % of control [9]: 25% | residual binding, % of control [10]: 0.6% | residual binding, % of control [11]: 27% | residual binding, % of control [12]: 83% | residual binding, % of control [13]: 0.15% | level, % of control [14]: 0.1% | inhibition [15]: 14% | residual binding, % of control [16]: 4.9% | residual binding, % of control [17]: 100% | inhibition [18]: 85% | residual binding, % of control [19]: 25% | level, % of control [20]: 0.75% | inhibition [21]: 100% | inhibition [22]: 67% | level, % of control [23]: 13% | residual binding, % of control [24]: 75% | inhibition [25]: 100% | residual binding, % of control [26]: 89% | residual binding, % of control [27]: 28% | inhibition [28]: 77% | residual binding, % of control [29]: 53% | inhibition [30]: 98% | inhibition [31]: 0.15% | residual binding, % of control [32]: 88% | inhibition [33]: 100% | residual binding, % of control [34]: 0% | inhibition [35]: 1.7% | residual binding, % of control [36]: 100% | residual binding, % of control [37]: 1.1% | level, % of control [38]: 0% | residual binding, % of control [39]: 0.1% | residual binding, % of control [40]: 100% | level, % of control [41]: 0% | residual binding, % of control [42]: 0.1%

CCN1CCN(Cc2ccc(NC(=O)c3ccc(C)c(C#Cc4cccnc4)c3)cc2C(F)(F)F)CC1
residual binding, % of control [1]: 0.05% | level, % of control [2]: 71% | residual binding, % of control [3]: 100% | residual binding, % of control [4]: 0.4% | residual binding, % of control [5]: 100% | level, % of control [6]: 4% | residual binding, % of control [7]: 6.2% | inhibition [8]: 6.2% | residual binding, % of control [9]: 18% | residual binding, % of control [10]: 1.2% | residual binding, % of control [11]: 8.4% | residual binding, % of control [12]: 75% | residual binding, % of control [13]: 0.3% | level, % of control [14]: 1.8% | inhibition [15]: 6.4% | residual binding, % of control [16]: 4% | residual binding, % of control [17]: 60% | inhibition [18]: 100% | residual binding, % of control [19]: 43% | level, % of control [20]: 0.9% | inhibition [21]: 100% | inhibition [22]: 88% | level, % of control [23]: 24% | residual binding, % of control [24]: 89% | inhibition [25]: 100% | residual binding, % of control [26]: 88% | residual binding, % of control [27]: 62% | inhibition [28]: 97% | residual binding, % of control [29]: 58% | inhibition [30]: 87% | inhibition [31]: 0.4% | residual binding, % of control [32]: 100% | inhibition [33]: 72% | residual binding, % of control [34]: 0.05% | inhibition [35]: 43% | residual binding, % of control [36]: 100% | residual binding, % of control [37]: 2.6% | level, % of control [38]: 0% | residual binding, % of control [39]: 0% | residual binding, % of control [40]: 100% | level, % of control [41]: 0% | residual binding, % of control [42]: 0.55%
